Series [1] deals with T1, Histone deacetylase 2 (Homo sapiens, UniProt Q92769). In words: Inhibition of full length recombinant C-terminal FLAG-tagged human HDAC2 expressed in baculovirus-infected Sf9 cells measured for 2 hrs by fluorescence-based assay.
The target of series [2] is T1, Histone deacetylase 2. In words: Inhibition of full length recombinant C-terminal FLAG-tagged human HDAC2 expressed in baculovirus-infected Sf9 cells at 1 mM measured for 2 hrs by fluorescence-based assay relative to control.
Series [3] deals with T1, Histone deacetylase 2. In words: Inhibition of full length recombinant C-terminal FLAG-tagged human HDAC2 expressed in baculovirus-infected Sf9 cells at 2 mM measured for 2 hrs by fluorescence-based assay relative to control.
For a further series, the system named is Mus musculus. In words: In vivo inhibition of HDAC2 in C57BL/6 mouse assessed as increase in histone H4K12 acetylation in brain at 100 mg/kg, po measured after 4 hrs by immunochemical detection method. It counts as functional, organism-based.
Series [4] is described as follows: AUC (0 to infinity) in C57BL/6 mouse brain at 100 mg/kg, po measured upto 6 hrs by LC-ESI-MS/MS analysis. In kind it is ADME, organism-based. On the set-up: dose 100 mg/kg, time < 6 hrs, route po. As to conditions: in vivo.
Series [5] can be described thus: Lipophilicity, log D of the compound at pH 7.4. It counts as physicochemical. The conditions noted are these: buffer.
Series [6] concerns SK-N-SH. In words: Inhibition of […] in human SK-N-SH cells assessed as increase in histone H4K12 acetylation level at 3 to 12 uM measured after 48 hrs by immunochemical detection based analysis. It counts as cell-based. As to conditions: dose 3-12 µM.
Series [7] in a line: Cmax in C57BL/6 mouse plasma at 30 mg/kg, po measured upto 24 hrs by LC-ESI-MS/MS analysis. It counts as ADME, organism-based. Also noted: time < 24 hrs, dose 30 mg/kg, route po.
The nature of series [8]: Half life in C57BL/6 mouse plasma at 30 mg/kg, po measured upto 24 hrs by LC-ESI-MS/MS analysis. It counts as ADME, organism-based.
The nature of series [9]: Unbound brain-to-plasma concentration ratio in C57BL/6 mouse by LC-MS/MS analysis. In kind it is ADME. As to conditions: read-out: K(p,uu,brain).
Series [10] can be described thus: AUC (0 to infinity) in C57BL/6 mouse plasma at 100 mg/kg, po measured upto 24 hrs by LC-ESI-MS/MS analysis. In kind it is ADME, organism-based. On the set-up: time < 24 hrs, dose 100 mg/kg, route po.
Series [11] can be described thus: Half life in C57BL/6 mouse brain at 30 mg/kg, po measured upto 24 hrs by LC-ESI-MS/MS analysis. It counts as ADME, organism-based.
Series [12] can be described thus: Half life in C57BL/6 mouse brain at 100 mg/kg, po measured upto 6 hrs by LC-ESI-MS/MS analysis. In kind it is ADME, organism-based.
Series [13] is described as follows: Cmax in C57BL/6 mouse brain at 30 mg/kg, po measured upto 24 hrs by LC-ESI-MS/MS analysis. It counts as ADME, organism-based. Also noted: dose 30 mg/kg, time < 24 hrs, route po.
Series [14] can be described thus: Cmax in C57BL/6 mouse plasma at 100 mg/kg, po measured upto 24 hrs by LC-ESI-MS/MS analysis. Also noted: time < 24 hrs, dose 100 mg/kg, route po. In kind it is ADME, organism-based.
Series [15] is described as follows: AUC (0 to infinity) in C57BL/6 mouse plasma at 30 mg/kg, po measured upto 24 hrs by LC-ESI-MS/MS analysis. On the set-up: time < 24 hrs, dose 30 mg/kg, route po. It counts as ADME, organism-based.
Series [16] is described as follows: Cmax in C57BL/6 mouse brain at 100 mg/kg, po measured upto 6 hrs by LC-ESI-MS/MS analysis. It counts as ADME, organism-based. Also noted: dose 100 mg/kg, time < 6 hrs, route po.
A short description of series [17]: Half life in C57BL/6 mouse plasma at 100 mg/kg, po measured upto 24 hrs by LC-ESI-MS/MS analysis. It counts as ADME, organism-based.
For series [18], the system named is SK-N-SH. In words: Inhibition of […] in human SK-N-SH cells assessed as increase in histone H3K9 acetylation level at 3 to 12 uM measured after 48 hrs by immunochemical detection based analysis. In kind it is cell-based. The conditions noted are these: dose 3-12 µM.
The nature of series [19]: AUC (0 to infinity) in C57BL/6 mouse brain at 30 mg/kg, po measured upto 24 hrs by LC-ESI-MS/MS analysis. In kind it is ADME, organism-based. On the set-up: dose 30 mg/kg, time < 24 hrs, route po. As to conditions: in vivo.

Calls of active or inactive are those of the source.

As a reminder, the IC50 is the concentration that gives 50% inhibition. What is called inhibition is the drop in the measured response relative to a control, in per cent. What is called logD is the decadic logarithm of the distribution of all forms, ionised or not, between an organic phase and buffer at a given pH. Higher therefore signals a more lipophilic compound. One may read the Cmax as the highest concentration seen after dosing. As usually defined, the half-life is the time needed for the level to fall by half in the phase considered. A lower half-life goes with fast loss. As a reminder, the AUC(0-inf) is the area under the concentration-time curve extrapolated to infinity. Read a high AUC(0-inf) as more exposure.

T1 sequence (Q92769 whole entry): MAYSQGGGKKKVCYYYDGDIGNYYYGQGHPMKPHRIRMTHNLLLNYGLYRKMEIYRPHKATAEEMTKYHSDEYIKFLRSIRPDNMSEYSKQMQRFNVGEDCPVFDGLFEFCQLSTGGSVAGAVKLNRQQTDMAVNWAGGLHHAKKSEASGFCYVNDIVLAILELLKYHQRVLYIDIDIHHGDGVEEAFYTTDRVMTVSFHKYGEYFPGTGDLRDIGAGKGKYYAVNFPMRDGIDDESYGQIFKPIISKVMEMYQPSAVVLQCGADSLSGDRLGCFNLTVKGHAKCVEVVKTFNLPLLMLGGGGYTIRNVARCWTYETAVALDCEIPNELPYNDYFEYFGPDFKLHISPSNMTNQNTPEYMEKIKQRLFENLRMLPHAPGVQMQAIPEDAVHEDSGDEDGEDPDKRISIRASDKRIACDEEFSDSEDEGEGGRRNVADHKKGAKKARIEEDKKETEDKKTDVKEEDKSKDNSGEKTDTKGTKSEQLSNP

With `N#Cc1cccnc1N1CCN(C(=O)[C@H]2C[C@@H](c3cccc(Cl)c3)CN2)CC1`, the IC50 at Histone deacetylase 2 [1] was determined as 0.85 µM.
Same read-out and setting: the result for `N[C@H](CCc1ccccc1)C(=O)N1CCCC1` reads 110 µM.
`O=C([C@H]1C[C@@H](c2ccc(Cl)cc2)CN1)N1Cc2ccccc2C1`: the IC50 at Histone deacetylase 2 [1] came to 4 µM.
The same measure, in the same setting: the value for `O=C([C@H]1C[C@@H](c2cccc(Cl)c2)CN1)N1Cc2ccccc2C1` was 2.8 µM.
On to `O=C(O)Cc1ccccc1`, for which, at Histone deacetylase 2 [2], the inhibition was 40%.
As for `Cc1cc(O)cc(=O)o1`, at Histone deacetylase 2 [2], the inhibition was 4%.
On to `CN(C)C(=O)[C@H](N)CCc1ccccc1`, for which, at Histone deacetylase 2 [3], the inhibition came out at 64%.
For `O=C([C@H]1C[C@@H](c2cccc(Cl)c2)CN1)N1CCN(c2nccc3ccsc23)CC1`, the inhibition entry with Mus musculus, with SK-N-SH [6] and in the series with SK-N-SH [18] was “Active” throughout. Besides, the values for the AUC in [4] and in series [19] were 13.1 µg·h/g and 4 µg·h/g, respectively. The compound further came in with a logD in series [5] of 3.9. Moreover, the Cmax in series [7] was 2400 ng/mL; in [13] it was 2300 ng/g; in series [14] it was 4000 ng/mL; in [16], 3400 ng/g. For the same compound, the half-life in series [8] is 1.1 h; in series [11], 0.9 h; in [12] it was 2.7 h; in [17], 3.5 h. For the same compound, in series [9], the Kp uu is 0.36. Also, the AUC(0-inf) in [10] is 18500 ng·h/mL; in [15], 4200 ng·h/mL. Moreover, the IC50 at Histone deacetylase 2 [1] was 0.5 µM.
For the compound `CN(C)C(=O)C(N)Cc1ccc(F)cc1` (centres undefined), on Histone deacetylase 2 [2], the inhibition came to 58%. At Histone deacetylase 2 [1], the IC50 is 1000 µM.
As to `O=C([C@H]1C[C@@H](c2ccccc2)CN1)N1Cc2ccccc2C1`, the IC50 at Histone deacetylase 2 [1] was found to be 6.4 µM.
Still for that read-out and setting: the result for `O=C1CCC(c2ccc([C@H]3CN[C@@H](C(=O)N4Cc5ccccc5C4)C3)cc2)N1` (stereo in doubt; 11) reads 18 µM.
For `O=C1CCC(c2ccc(Cl)cc2)N1` (centres undefined), on Histone deacetylase 2 [2], the inhibition came to 9%.
As for `O=C([C@H]1C[C@@H](c2ccccc2)CN1)N1CCCC1`, the IC50 at Histone deacetylase 2 [1] was 26 µM.
On the same count and under the same terms, the result for `O=C1CCC(c2ccc([C@H]3CN[C@@H](C(=O)N4Cc5ccccc5C4)C3)cc2)N1` (stereo in doubt; 10) reads 26 µM.
`N#Cc1cccnc1N1CCN(C(=O)[C@H]2C[C@@H](c3ccccc3)CN2)CC1`: the IC50 on Histone deacetylase 2 [1] turned out to be 1.8 µM.
For `O=C([C@H]1C[C@@H](c2ccccc2)CN1)N1CCN(c2nccc3ccsc23)CC1`, on Histone deacetylase 2 [1], the IC50 came out at 1.7 µM.

The values above are taken from ChEMBL document CHEMBL5113540, “Fragment-Based Discovery of a Novel, Brain Penetrant, Orally Active HDAC2 Inhibitor” (ACS Med Chem Lett, 2022).
